Where two headings read alike, the source gives them in different places.
How the values were obtained:
[1] = target: T1, TRKA(G595R) (Homo sapiens, UniProt P04629, G595R); test: HTRF KinEASE-TK kinase activity inhibition assay, TRKA(G595R); assay type: biochemical; conditions: ATP 7 µM
T1 construct: purchased SignalChem N16-12BG-10
Text: The following method was used to determine the inhibition degrees of the compounds of the present invention on the activity of recombinant human NTRK family kinase in vitro. In this method, HTRF®KinEASE-TK tyrosine kinase kit (article number: 62TK0PEB) of Cisbio company was used, and the principle of the kit was based on time-resolved fluorescence resonance energy transfer (TF-FRET), and the inhibition of the compounds on the activity of the NTRK kinase was reflected by determining a phosphorylation degree of a biotinylated polypeptide substrate mediated by NTRK kinase. For detailed experimental operation, please refer to the kit instruction. Recombinant human wild-type NTRK proteins were purchased from Carna bioscience (the article numbers were TRKA #08-186, TRKB #08-187 and TRKC #08-197 respectively), and recombinant human mutant NTRK proteins were purchased from SignalChem (the article numbers were TRKA G595R #N16-12BG-10, TRKA G667C # N16-12CG-10, and TRKC G623R # N18-12CH-10 respectively).
The experimental methods were operated according to the steps in the kit instruction, and were briefly described as follows: a test compound was first dissolved in DMSO to prepare a storage solution, and then diluted in gradient with a buffer provided in the kit. A final concentration of the test compound in the reaction system ranged from 1,000 nM to 0.004 nM. An ATP Km value concentration of each NTRK protein was determined by using an ATP solution diluted in gradient (Sangon Biotech (Shanghai) Co., Ltd., A600311). According to the Km value obtained, the ATP concentrations in the reaction system were set as 100 µM for TRKA, 10 µM for TRKB, 50 µM for TRKC, 7 µM for TRKA(G595R), 1 µM for TRKA(G667C) and 100 µM for TRKC(G623R). The reaction was carried out in a 384-well microplate. Firstly, the compound and a certain amount of corresponding NTRK protein were added to the wells and incubated for 5 minutes to 10 minutes at room temperature. Then, the ATP solution and the biotinylated polypeptide substrate solution were added to the reaction solution and incubated with shaking at room temperature for 60 minutes. Then, an anti-phosphorylated tyrosine antibody coupled with a europium compound and streptavidin coupled with modified allophycocyanin XL665 were added to the reaction, and continuously incubated with shaking at room temperature for 1 hour. After incubation, fluorescence intensity values of each well at an excitation wavelength of 304 nm, and emission wavelengths of 620 nm and 665 nM were determined in a TF-FRET mode on a microplate reader. Compared with the fluorescence intensity ratio of a control group (0.1% DMSO), the percentage inhibition rates of the compound at each concentration were calculated, and the IC50 value of the compound was obtained by performing nonlinear regression analysis for logarithmic value of the compound concentration - inhibition rate by GraphPad Prism 5 software, which can be seen in Table 1. Table 1 IC50 data of the compounds of the present invention on TRK enzyme activity inhibition

[2] = tested on: KARPAS-299 (human anaplastic large cell lymphoma cell); test: Cell proliferation assay (CellTiter-Glo), KARPAS-299; assay type: cell-based; conditions: 72 hours, NPM-ALK fusion
Text: The following method was used to determine the effects of the compounds of the present invention on cell proliferation. H2228 cells (containing EML4-ALK fusion) were purchased from Cell Resource Center of Shanghai Institutes for Biological Sciences, Chinese Academy of Sciences. KARPAS-299 cells (containing NPM-ALK fusion) were purchased from Nanjing COBIOER Biotechnology Co., Ltd. The above two cell lines were used to determine the inhibition of the compounds on cell activities. The cells were cultured in an RPMI 1640 medium containing 10% fetal bovine serum, 100 U penicillin, 100 µg/mL streptomycin, and 1 mM Sodium Pyruvate. The cells were cultured in a 5% CO2 incubator at 37°C. The activity of the cells was determined by CellTiter-Glo® Luminescent Cell Viability Assay kit (Promega, article number: G7573).
The experimental methods were operated according to the steps in the kit instruction, and were briefly described as follows: a test compound was first dissolved in DMSO to prepare a storage solution, and then diluted in gradient with the corresponding cell culture medium to prepare a test sample. […] After the culture, 50 µL of CellTiter-Glo detection solution was added to each well, shaken for 5 minutes, and then stood for 10 minutes, and the luminescence values of each well were read on the microplate reader using a Luminance mode. […]

[3] = Pharmacokinetic study on ICR mice (plasma, LC-MS/MS); assay type: in vivo; conditions: male, mouse; for bioavailability: 5 mg/kg oral intake vs 1 mg/kg injection, read-out: Bioavailability F(%); for AUC(0-inf): read-out: Area under curve AUC0-∞; for Cmax: read-out: Blood concentration Cmax; for half-life: read-out: Half-life T1/2(h) (converted); for clearance: read-out: Clearance rate
Method: ICR mice, male, 29.0 g to 33.8g, purchased from Beijing Charles River Laboratory Animal Technology Co., Ltd.
Intravenous injection group: an appropriate amount of drug was weighed, and added with mixed solvent (DMA: 30% Solutol HS-15: Saline = 10: 10: 80 (v/v/v)) to prepare the drug with a final concentration of 0.2 mg/mL.
Oral gavage administration group: an appropriate amount of drug was weighed, added with an appropriate amount of sodium carboxymethyl cellulose (CMC-Na, containing 0.5% Tween 80), vortex shaked, and ultrasonically prepared into […] suspension.
For ICR mice, each compound to be tested was divided into an intravenous injection group (9 mice in each group) and an intragastric group (9 mice in each group). The ICR mice were fasted overnight and then administered by orbital intravenous injection (administration dose of 1 mg/kg, and administration volume of 5 mL/kg) and administered by intragastric injection (administration dose of 5 mg/kg, and administration volume of 10 mL/kg), and ate 4 hours after administration.
About 0.2 mL of blood was collected via jugular vein before administration and 0.083 hour, 0.25 hour, 0.5 hour, 1 hour, 2 hours, 4 hours, 8 hours, 12 hours and 24 hours after administration, and heparin sodium was used for anticoagulation. The collected blood samples were placed on ice, and plasma was separated by centrifugation (centrifugation condition: 1500 g, 10 minutes). The collected plasma was stored at-40°C to -20°C before analysis.
LC-MS/MS was used to determine the contents of different compounds to be tested in mouse plasma after intravenous injection and intragastric administration.
The pharmacokinetic parameters of the compounds of the present invention and the positive control can be seen in Table 8. Table 8 Results of pharmacokinetic parameters

[4] = intravenous, 1 mg/kg, injection

T1 sequence (P04629 33-796 G595R): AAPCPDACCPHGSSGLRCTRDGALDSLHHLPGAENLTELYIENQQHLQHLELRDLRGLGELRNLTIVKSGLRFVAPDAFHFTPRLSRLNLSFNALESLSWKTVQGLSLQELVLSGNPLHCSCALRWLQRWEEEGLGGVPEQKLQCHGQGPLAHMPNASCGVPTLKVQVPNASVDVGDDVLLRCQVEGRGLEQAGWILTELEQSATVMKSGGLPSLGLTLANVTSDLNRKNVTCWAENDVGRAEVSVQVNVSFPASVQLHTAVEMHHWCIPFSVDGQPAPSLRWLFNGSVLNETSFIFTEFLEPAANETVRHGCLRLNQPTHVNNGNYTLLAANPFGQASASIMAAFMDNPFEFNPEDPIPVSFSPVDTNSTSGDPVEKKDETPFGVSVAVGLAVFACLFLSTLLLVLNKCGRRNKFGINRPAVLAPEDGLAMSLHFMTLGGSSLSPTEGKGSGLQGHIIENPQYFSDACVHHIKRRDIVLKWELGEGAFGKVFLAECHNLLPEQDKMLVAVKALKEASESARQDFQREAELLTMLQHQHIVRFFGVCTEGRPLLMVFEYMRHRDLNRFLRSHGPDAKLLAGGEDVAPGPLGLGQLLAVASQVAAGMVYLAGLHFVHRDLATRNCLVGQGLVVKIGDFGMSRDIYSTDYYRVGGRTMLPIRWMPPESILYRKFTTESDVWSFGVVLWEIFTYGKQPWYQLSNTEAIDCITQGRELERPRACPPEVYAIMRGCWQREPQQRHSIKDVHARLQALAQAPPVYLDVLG

IC50 [1] | IC50 [2] | bioavailability [3] | AUC(0-inf) ([3]; 5 mg/kg, oral intake) | Cmax ([3]; 5 mg/kg, oral intake) | half-life ([3]; 5 mg/kg, oral intake) | AUC(0-inf) [3, 4] | clearance [3, 4] | half-life [3, 4] | SMILES
5.4 nM | 52.7 nM | 47% | 4850 ng·h/mL | 1050 ng/mL | 3.15 h | 2060 ng·h/mL | 8.11 mL/min/kg | 1.54 h | C[C@H]1Nc2ccn3nc(N)c(c3n2)C(=O)NC[C@@]2(C)Cc3cc(F)cc1c3O2 [Example 25, (3R,11R)-16-amino-6-fluoro-3,11-dimethyl-10-oxa-2,13,17,18,21-pentaazapentacyclo[13.5.2.1^8,11.0^4,9. 0^18,22]tricosa-1(21),4,6,8,15(22),16,19-heptaen-14-one]
2.03 nM | 65.5 nM | 53% | 5620 ng·h/mL | 2260 ng/mL | 1.54 h | 2100 ng·h/mL | 7.9 mL/min/kg | 1.47 h | C[C@H]1Nc2ccn3ncc(c3n2)C(=O)NC[C@@]2(C)Cc3cc(F)cc1c3O2 [Example 8, (3R,11R)-6-fluoro-3,11-dimethyl-10-oxa-2,13,17,1 8,21-pentaazapentacyclo[13.5.2.1^8,11.0^4,9.0^18,22]tric osa-1(21),4,6,8,15(22),16,19-heptaen-14-one]

Reference: patent publication EP3974434B1, “MACROLIDE DERIVATIVES, PREPARATION METHOD AND APPLICATION THEREOF” (Zhejiang Hisun Pharmaceutical Co., Ltd., priority 2019, dated 2020)
